This passage reports IC50 results from patent publication US8975398B2, “NAMPT inhibitors” (AbbVie Inc., priority 2012, dated 2015).

Test [1] addresses NAMPT (human, recombinant, C-terminally His-tagged) (Homo sapiens, UniProt P43490). Description: Time-Resolved Fluorescence Resonance Energy Transfer (TR-FRET) Binding Assay of NAMPT. Conditions: 6.8 nM NAMPT, 200 nM probe, equilibrated 3 hours, absence of substrates. In short, it runs like this:
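Recombinant C-terminally His-tagged human NAMPT (6.8 nM) incubated 3 h at room temperature with 200 nM Oregon Green 488–labelled nicotinamide-competitive probe and 1 nM Tb-anti-His antibody in HEPES pH 7.5, 2% DMSO. TR-FRET ratio Em520/Em495 normalized to controls; IC50 from four-parameter logistic fit.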

The target in another test is NAMPT (Homo sapiens, UniProt P43490). Description: Time-Resolved Fluorescence Resonance Energy Transfer (TR-FRET) Binding Assay of NAMPT with PRPP. The following applies: 2 nM NAMPT, 2 nM probe, 200 uM PRPP and 2.5 mM ATP, equilibrated 16 hours. The gist of the method: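 Final mix: 2 nM NAMPT, 2 nM probe, 1 nM Tb-anti-His antibody, 200 uM PRPP, 2.5 mM ATP, 2% DMSO in 1× assay buffer. Equilibrated 16 hours before TR-FRET read, allowing possible enzymatic modification of compounds.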
Chain of NAMPT (P43490 whole entry): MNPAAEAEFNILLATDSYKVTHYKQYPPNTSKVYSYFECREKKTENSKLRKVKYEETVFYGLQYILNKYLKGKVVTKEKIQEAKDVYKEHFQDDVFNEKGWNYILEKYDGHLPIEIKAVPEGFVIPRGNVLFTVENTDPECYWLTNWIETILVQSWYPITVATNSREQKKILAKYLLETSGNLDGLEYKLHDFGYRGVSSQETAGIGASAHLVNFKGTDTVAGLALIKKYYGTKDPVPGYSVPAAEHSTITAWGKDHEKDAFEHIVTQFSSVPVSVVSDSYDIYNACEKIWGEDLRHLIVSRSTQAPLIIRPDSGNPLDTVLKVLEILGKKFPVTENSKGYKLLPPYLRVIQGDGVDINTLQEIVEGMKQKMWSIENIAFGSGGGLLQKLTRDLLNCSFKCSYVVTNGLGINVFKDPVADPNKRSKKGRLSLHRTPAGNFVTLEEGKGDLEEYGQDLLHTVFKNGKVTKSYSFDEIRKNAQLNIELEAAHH
(In TR-FRET formats the signal depends on donor and acceptor labels being close together.)

Each structure is given as a SMILES string.

Chain of NAMPT (human, recombinant, C-terminally His-tagged) (P43490 whole entry): as above

For the molecule `O=C(Nc1ccc(OC2CCN(C(=O)CC(F)(F)F)CC2)cc1)C1CN(c2ccnnc2)C1` [Example 268, 1-(pyridazin-4-yl)-N-(4-{[1-(3,3,3-trifluoropropanoyl)piperidin-4-yl]oxy}phenyl)azetidine-3-carboxamide], the concentration for half-maximal inhibition (IC50) (commonly the midpoint of a concentration-inhibition curve) in test [1] was determined as 119 nM; at NAMPT it was 42.1 nM.
In the case of `O=C(Nc1ccc(OC2CCN(C(=O)C(F)(F)c3ccccc3)CC2)cc1)C1CN(c2ccnnc2)C1` [Example 269, N-[4-({1-[difluoro(phenyl)acetyl]piperidin-4-yl}oxy)phenyl]-1-(pyridazin-4-yl)azetidine-3-carboxamide], the half-inhibitory concentration (IC50) turned out to be 37.7 nM in test [1] and 22.3 nM on NAMPT.
The matching figures for `O=C(Nc1ccc(OC2CCN(C(=O)C3CCC(F)(F)CC3)CC2)cc1)C1CN(c2ccnnc2)C1` [Example 270, N-[4-({1-[(4,4-difluorocyclohexyl)carbonyl]piperidin-4-yl}oxy)phenyl]-1-(pyridazin-4-yl)azetidine-3-carboxamide]: 74.8 nM and 35.7 nM.
In the case of `O=C(Nc1ccc(OC2CCN(C(=O)c3ccc(F)cc3)CC2)cc1)C1CN(c2ccnnc2)C1` [Example 271, N-(4-{[1-(4-fluorobenzoyl)piperidin-4-yl]oxy}phenyl)-1-(pyridazin-4-yl)azetidine-3-carboxamide], the values for the IC50 (in test [1]; at NAMPT) were 78 nM and 25.2 nM, respectively.
The like results for `O=C(Nc1ccc(OC2CCN(C(=O)c3cscn3)CC2)cc1)C1CN(c2ccnnc2)C1` [Example 272, 1-(pyridazin-4-yl)-N-(4-{[1-(1,3-thiazol-4-ylcarbonyl)piperidin-4-yl]oxy}phenyl)azetidine-3-carboxamide] were, in that order, 165 nM and 52.4 nM.
The matching figures for `O=C(Nc1ccc(OC2CCN(C(=O)Cc3ccc(C(F)(F)F)cc3)CC2)cc1)C1CN(c2ccnnc2)C1` [Example 273, 1-(pyridazin-4-yl)-N-{4-[(1-{[4-(trifluoromethyl)phenyl]acetyl}piperidin-4-yl)oxy]phenyl}azetidine-3-carboxamide]: 128 nM and 42.1 nM.
As for `O=C(Nc1ccc(OC2CCN(C(=O)c3ccc(F)c(F)c3)CC2)cc1)C1CN(c2ccnnc2)C1` [Example 274, N-(4-{[1-(3,4-difluorobenzoyl)piperidin-4-yl]oxy}phenyl)-1-(pyridazin-4-yl)azetidine-3-carboxamide], the 50% inhibitory concentration (IC50) in test [1] was determined as 152 nM; at NAMPT, 64.5 nM.
The matching figures for `O=C(Nc1ccc(OC2CCN(C(=O)Cc3ccc(OC(F)(F)F)cc3)CC2)cc1)C1CN(c2ccnnc2)C1` [Example 275, 1-(pyridazin-4-yl)-N-{4-[(1-{[4-(trifluoromethoxy)phenyl]acetyl}piperidin-4-yl)oxy]phenyl}azetidine-3-carboxamide]: 231 nM and 45.1 nM.
The like results for `O=C(Nc1ccc(OC2CCN(C(=O)Cc3ccc(F)cc3)CC2)cc1)C1CN(c2ccnnc2)C1` [Example 276, N-[4-({1-[(4-fluorophenyl)acetyl]piperidin-4-yl}oxy)phenyl]-1-(pyridazin-4-yl)azetidine-3-carboxamide] were, in that order, 134 nM and 34.9 nM.
Turning to `O=C(Nc1ccc(OC2CCN(C(=O)Cc3ccc(F)cc3F)CC2)cc1)C1CN(c2ccnnc2)C1` [Example 277, N-[4-({1-[(2,4-difluorophenyl)acetyl]piperidin-4-yl}oxy)phenyl]-1-(pyridazin-4-yl)azetidine-3-carboxamide], the IC50 came out at 62.4 nM in test [1] and 26.7 nM on NAMPT.
As to `O=C(Nc1ccc(OC2CCN(C(=O)c3ccsc3)CC2)cc1)C1CN(c2ccnnc2)C1` [Example 278, 1-(pyridazin-4-yl)-N-(4-{[1-(thiophen-3-ylcarbonyl)piperidin-4-yl]oxy}phenyl)azetidine-3-carboxamide], the 50% inhibitory concentration (IC50) came out at 75.8 nM in test [1] and 33.4 nM on NAMPT.
`O=C(Nc1ccc(OC2CCN(C(=O)c3ccccc3Cl)CC2)cc1)C1CN(c2ccnnc2)C1` [Example 279, N-(4-{[1-(2-chlorobenzoyl)piperidin-4-yl]oxy}phenyl)-1-(pyridazin-4-yl)azetidine-3-carboxamide]: the half-inhibitory concentration (IC50) in test [1] is 20.2 nM; at NAMPT, 15.5 nM.
The like results for `CC(C)(C)C(=O)N1CCC(Oc2ccc(NC(=O)C3CN(c4ccnnc4)C3)cc2)CC1` [Example 280, N-(4-{[1-(2,2-dimethylpropanoyl)piperidin-4-yl]oxy}phenyl)-1-(pyridazin-4-yl)azetidine-3-carboxamide] were, in that order, 123 nM and 51.9 nM.
The matching figures for `CC(C)(C(=O)N1CCC(Oc2ccc(NC(=O)C3CN(c4ccnnc4)C3)cc2)CC1)c1ccccc1` [Example 281, N-(4-{[1-(2-methyl-2-phenylpropanoyl)piperidin-4-yl]oxy}phenyl)-1-(pyridazin-4-yl)azetidine-3-carboxamide]: 20.5 nM and 14.9 nM.
The matching figures for `CC(=O)N1CCC(Oc2ccc(NC(=O)C3CN(c4ccnnc4)C3)cc2)CC1` [Example 282, N-{4-[(1-acetylpiperidin-4-yl)oxy]phenyl}-1-(pyridazin-4-yl)azetidine-3-carboxamide]: 383 nM and 90 nM.
As for `O=C(Nc1ccc(OC2CCN(C(=O)c3nccs3)CC2)cc1)C1CN(c2ccnnc2)C1` [Example 283, 1-(pyridazin-4-yl)-N-(4-{[1-(1,3-thiazol-2-ylcarbonyl)piperidin-4-yl]oxy}phenyl)azetidine-3-carboxamide], the IC50 in test [1] turned out to be 72.3 nM; at NAMPT it was 32.2 nM.
Turning to `O=C(Nc1ccc(OC2CCN(C(=O)c3ccc(F)cc3F)CC2)cc1)C1CN(c2ccnnc2)C1` [Example 284, N-(4-{[1-(2,4-difluorobenzoyl)piperidin-4-yl]oxy}phenyl)-1-(pyridazin-4-yl)azetidine-3-carboxamide], the IC50 in test [1] turned out to be 62.4 nM; at NAMPT, 38.2 nM.
The matching figures for `O=C(Nc1ccc(OC2CCN(C(=O)c3cccc(C(F)(F)F)c3)CC2)cc1)C1CN(c2ccnnc2)C1` [Example 285, 1-(pyridazin-4-yl)-N-[4-({1-[3-(trifluoromethyl)benzoyl]piperidin-4-yl}oxy)phenyl]azetidine-3-carboxamide]: 149 nM and 86.2 nM.
The like results for `O=C(Nc1ccc(OC2CCN(C(=O)c3cccc(F)c3)CC2)cc1)C1CN(c2ccnnc2)C1` [Example 286, N-(4-{[1-(3-fluorobenzoyl)piperidin-4-yl]oxy}phenyl)-1-(pyridazin-4-yl)azetidine-3-carboxamide] were, in that order, 127 nM and 66.4 nM.
Turning to `O=C(Nc1ccc(OC2CCN(C(=O)c3ccc(C(F)(F)F)cc3)CC2)cc1)C1CN(c2ccnnc2)C1` [Example 287, 1-(pyridazin-4-yl)-N-[4-({1-[4-(trifluoromethyl)benzoyl]piperidin-4-yl}oxy)phenyl]azetidine-3-carboxamide], the figures for the IC50 (in test [1]; at NAMPT) were 125 nM and 63.2 nM, respectively.
The like results for `O=C(Nc1ccc(OC2CCN(C(=O)Cc3cccc(F)c3)CC2)cc1)C1CN(c2ccnnc2)C1` [Example 288, N-[4-({1-[(3-fluorophenyl)acetyl]piperidin-4-yl}oxy)phenyl]-1-(pyridazin-4-yl)azetidine-3-carboxamide] were, in that order, 44.9 nM and 19.5 nM.
The matching figures for `O=C(Nc1ccc(OC2CCN(C(=O)c3ccccc3F)CC2)cc1)C1CN(c2ccnnc2)C1` [Example 289, N-(4-{[1-(2-fluorobenzoyl)piperidin-4-yl]oxy}phenyl)-1-(pyridazin-4-yl)azetidine-3-carboxamide]: 41.6 nM and 32.1 nM.
The like results for `O=C(Nc1ccc(OC2CCN(C(=O)c3ccc(OC(F)(F)F)cc3)CC2)cc1)C1CN(c2ccnnc2)C1` [Example 290, 1-(pyridazin-4-yl)-N-[4-({1-[4-(trifluoromethoxy)benzoyl]piperidin-4-yl}oxy)phenyl]azetidine-3-carboxamide] were, in that order, 99.3 nM and 45.7 nM.
Turning to `O=C(Nc1ccc(OC2CCN(C(=O)Cc3cc(F)cc(F)c3)CC2)cc1)C1CN(c2ccnnc2)C1` [Example 291, N-[4-({1-[(3,5-difluorophenyl)acetyl]piperidin-4-yl}oxy)phenyl]-1-(pyridazin-4-yl)azetidine-3-carboxamide], the IC50 is 45.6 nM in test [1] and 18.2 nM on NAMPT.
On to `O=C(Nc1ccc(OC2CCN(C(=O)c3cccc(OC(F)(F)F)c3)CC2)cc1)C1CN(c2ccnnc2)C1` [Example 292, 1-(pyridazin-4-yl)-N-[4-({1-[3-(trifluoromethoxy)benzoyl]piperidin-4-yl}oxy)phenyl]azetidine-3-carboxamide], for which the values for the 50% inhibitory concentration (IC50) (in test [1]; on NAMPT) were 99 nM and 64.7 nM, respectively.
The like results for `O=C(Nc1ccc(OC2CCN(C(=O)CC3CC3)CC2)cc1)C1CN(c2ccnnc2)C1` [Example 293, N-(4-{[1-(cyclopropylacetyl)piperidin-4-yl]oxy}phenyl)-1-(pyridazin-4-yl)azetidine-3-carboxamide] were, in that order, 78.2 nM and 25.3 nM.
The matching figures for `CC(C)C(=O)N1CCC(Oc2ccc(NC(=O)C3CN(c4ccnnc4)C3)cc2)CC1` [Example 294, N-(4-{[1-(2-methylpropanoyl)piperidin-4-yl]oxy}phenyl)-1-(pyridazin-4-yl)azetidine-3-carboxamide]: 112 nM and 55.1 nM.
On to `O=C(Nc1ccc(OC2CCN(C(=O)c3cccc(Cl)c3)CC2)cc1)C1CN(c2ccnnc2)C1` [Example 295, N-(4-{[1-(3-chlorobenzoyl)piperidin-4-yl]oxy}phenyl)-1-(pyridazin-4-yl)azetidine-3-carboxamide], for which the IC50 came out at 77.6 nM in test [1] and 51 nM at NAMPT.
